Where a name gives a salt, the structure may show the parent alone.
Columns and labels:
[1] = system: MAO-A; conditions: cited from earlier work; for selective MAO-A inhibition: GNR-E constituents, ref Previous studies
[2] = system: MAO-B; conditions: cited from earlier work; for MAO-B inhibition (targeting): GNR-E constituents, ref Previous studies
[3] = system: glucocorticoid receptor (GR) and serum/glucocorticoid-regulated kinase-1 (SGK-1); test: qPCR of HPA-axis genes in frontal cortex and hippocampus of CMS mice; format: in vivo, male ICR mice; conditions: FC and HP, daily imipramine or GNR-E 50, 150, 450 mg/kg, vs vehicle-treated CMS group
Procedure: (§1) The CMS procedure, adapted from Willner, was applied to experimental mice over 48 days. Seventy-two mice were randomly assigned to six groups: a non-stress control group and four CMS-exposed groups for 6 weeks. Stressors included a tilted cage at 45° (12 h), restricted food access (five micro pellets, 1 h), empty bottle exposure (3 h), wet cage (200 mL water in 100 g sawdust bedding, 21 h), reversed light–dark cycle (36 h), intermittent sound (3 and 5 h), paired caging (2 h), and food/water deprivation (18 h), applied randomly weekly and repeated over 6 weeks (Figure 11). The non-stressed group was maintained under standard conditions.
Mice were randomly divided into six groups (n = 15). […]
(§2) Total RNA was extracted from frontal cortex (FC) and hippocampus (HP) using TRLzol® reagent (Thermo Fisher Scientific Inc., San Jose, CA, USA), with purity and quantity assessed via UV spectrophotometry. […] Double-stranded DNA was quantified using SYBR Green master mix (Thermo Fisher Scientific Inc., San Jose, CA, USA) in a 20 µL reaction containing 2X SYBR Green PCR Master Mix, 10 nM of each primer, and 5 µL cDNA. […] Glyceraldehyde 3-phosphate dehydrogenase (GAPDH) mRNA served as the housekeeping gene, and fold differences were calculated using the 2^−∆∆CT method, incorporating standard deviation into the fold-difference calculation.

[4] = system: NET, α2A, and α2C; test: qPCR of noradrenergic biomarker genes in frontal cortex and hippocampus of CMS mice; format: in vivo, male ICR mice
Procedure: as §1
(§3) Mice were randomly divided into six groups (n = 15). The non-stress group received 0.5% sodium carboxymethylcellulose (SCMC; 1 mL/kg, p.o.), while the CMS group received 0.5% SCMC (1 mL/kg, p.o.). The CMS + imipramine (IMP) group was administered imipramine hydrochloride (20 mg/kg, p.o.), and the CMS + GNR-E groups received GNR-E at 50, 150, and 450 mg/kg (p.o.), respectively. All treatments were given daily for 3 weeks, starting on day 21, at 8:00 a.m., one hour before behavioral testing.
Following behavioral tests, mice were anesthetized with […] (Nembutal®, Ceva Sante Animal, Libourne, France) at 60 mg/kg (i.p.) and decapitated. Blood and brain samples were collected immediately. Blood was centrifuged at 3000 rpm at 21 °C for 20 min to obtain serum for ELISA analysis. […]
as §2

[5] = system: serum corticosterone (CORT); test: Serum corticosterone (CORT) ELISA in CMS mice; format: in vivo, male ICR mice; conditions: daily imipramine 20 mg/kg or GNR-E 50, 150 and 450 mg/kg, p < 0.001 vs vehicle-treated CMS group
Procedure: as §1
as §3, with “testing. […]” for “testing.”
Corticosterone levels were measured using an enzyme-linked immunosorbent assay (ELISA) kit (ab108821, Abcam Ltd., Cambridge, Cambridgeshire, UK) following the manufacturer’s instructions. […]

[6] = system: SERT, 5-HT1A, 5-HT1B, 5-HT2A, 5-HT2C, and 5-HT7; test: qPCR of serotonergic biomarker genes in frontal cortex and hippocampus of CMS mice; format: in vivo, male ICR mice
Source text: The CMS procedure, adapted from Willner [4], was applied to experimental mice over 48 days. Seventy-two mice were randomly assigned to six groups: a non-stress control group and four CMS-exposed groups for 6 weeks.
The frontal cortex (FC) and hippocampus (HP) were dissected from the brain for serotonin (5-HT), norepinephrine (NE) level assessments, and RT-qPCR analyses.
Total RNA was extracted from frontal cortex (FC) and hippocampus (HP) using TRLzol® reagent (Thermo Fisher Scientific Inc., San Jose, CA, USA), with purity and quantity assessed via UV spectrophotometry. Complementary DNA (cDNA) was synthesized using 10 mM dNTP, 50 µM oligo (dT)12-13 primer, and SuperScript® III reverse transcriptase (200 U/µL) in a FlexCycler2 PCR Thermal Cycler (Analytik Jena, Thuringia, Germany). Single-stranded DNA was annealed to gene-specific primers (Pacific Science, Bangkok, Thailand) at optimized temperatures, followed by extension. Double-stranded DNA was quantified using SYBR Green master mix (Thermo Fisher Scientific Inc., San Jose, CA, USA) in a 20 µL reaction containing 2X SYBR Green PCR Master Mix, 10 nM of each primer, and 5 µL cDNA. […] Melting curve analysis was conducted post-amplification. Glyceraldehyde 3-phosphate dehydrogenase (GAPDH) mRNA served as the housekeeping gene, and fold differences were calculated using the 2^−∆∆CT method, incorporating standard deviation into the fold-difference calculation [30].

[7] = system: norepinephrine (NE); test: Norepinephrine (NE) levels in frontal cortex and hippocampus of CMS mice; format: in vivo, male ICR mice; conditions: daily imipramine 20 mg/kg or GNR-E 450 mg/kg, vs vehicle-treated CMS group
Procedure: as §1
(§4) Mice were randomly divided into six groups (n = 15). The non-stress group received 0.5% sodium carboxymethylcellulose (SCMC; 1 mL/kg, p.o.), while the CMS group received 0.5% SCMC (1 mL/kg, p.o.). […]
Brain supernatant (0.2 mL) was combined with 0.1 mL sodium acetate buffer (pH 6.9), 0.05 mL HCl (0.4 M), and 0.1 mL iodine solution (0.1 M in ethanol) for oxidation. […] Excitation and emission spectra were recorded at 395 nm and 485 nm, respectively, using a calibrated spectrofluorometer. Norepinephrine concentrations were calculated from a standard curve (0, 50, 100, 140, 220, 280, 300 µg/mL) prepared in distilled water and butanol/HCl (1:2 ratio).

[8] = system: depressive-like behaviors; test: Chronic mild stress (CMS) mouse model of depression, behaviours overall; format: in vivo, male ICR mice; conditions: CMS mice, oral GNR-E 50, 150, 450 mg/kg/day, imipramine 20 mg/kg/day
Procedure: as §1, with “conditions. Mice were randomly divided into six groups […]. The non-stress group received 0.5% sodium carboxymethylcellulose (SCMC; 1 mL/kg, p.o.), while the CMS group received 0.5% SCMC (1 mL/kg, p.o.). […] All treatments were given daily for 3 weeks, starting on day 21, at 8:00 a.m., one hour before behavioral testing.” for “conditions.”

[9] = system: CMS-induced anhedonia behavior; test: Sucrose preference (consumption) test in CMS mice; format: in vivo, male ICR mice; conditions: imipramine 20 mg/kg p.o. daily, by week 4
Procedure: Five-week-old male ICR mice (15–20 g) were obtained from Nomura Siam International (Bangkok, Thailand) and acclimatized for seven days prior to experimentation. The study protocol adhered to the Guiding Principle for the Care and Use of Animals (NIH Publications #8-23, revised 2011) and was approved by the Animal Ethics Committee of Khon Kaen University (approval No. IACUC-KKU-121/64), complying with ARRIVE guideline 2.0. […] Behavioral experiments were conducted between 07:00 and 17:00 h. The CMS procedure, adapted from Willner, was applied to experimental mice over 48 days. Seventy-two mice were randomly assigned to six groups: a non-stress control group and four CMS-exposed groups for 6 weeks. […] The amount consumed each day was recorded and used to group the mice and establish the baseline sucrose consumption before initiating the chronic stress procedure. During the subsequent experimental period (week 1–6), sucrose consumption was measured weekly using the same deprivation and testing conditions under chronic stress. The weight of each mouse and the amount of sucrose solution consumed were recorded and calculated as the amount of sucrose intake g/kg body weight).

[10] = system: serotonin (5-HT); test: Serotonin (5-HT) levels in frontal cortex and hippocampus of CMS mice; format: in vivo, male ICR mice; conditions: daily imipramine 20 mg/kg or GNR-E 450 mg/kg, vs vehicle-treated CMS group
Procedure: as §1, §4
Serotonin levels in mouse brain extracts were quantified using a modified fluorometric method.A 0.2 mL brain extract sample was mixed with 0.25 mL O-phthaldialdehyde (Sigma-Aldrich, St. Louis, MO, USA) and heated to 100 °C for 10 min to form a fluorophore. Levels were measured spectrofluorometrically at 340 nm (excitation) and 470 nm (emission) after cooling to room temperature. Concentrations were determined against a calibration curve (0, 25, 50, 100, 200, 300, 400 µg/mL) using the equation Y = AX + B, expressed as µg/mL.

[11] = system: immobility; design: method as in Sahu et al.; conditions: α-mangostin from G. mangostana, by elevating 5-HT; ref Sahu et al.; cited from earlier work
[12] = system: antidepressant-like properties; conditions: through monoaminergic modulation; cited from earlier work
[13] = FC and HP, imipramine, GNR-E 150–450 mg/kg
[14] = imipramine, GNR-E 150–450 mg/kg

Compound: COc1c(O)cc2oc3cc(O)c(CC=C(C)C)c(O)c3c(=O)c2c1C/C=C(\C)CCC=C(C)C [cowanin]
- selective MAO-A inhibition [1]: selectively inhibiting MAO-A
- MAO-A inhibition, rank among constituents ([1]; ref Our previous study): most potent toward MAO-A

Compound: COc1cc2oc3cc(O)c(CC=C(C)C)c(O)c3c(=O)c2c(CC=C(C)C)c1OC [cowaxanthone B]
- MAO-B inhibition (targeting) [2]: targeting MAO-B

Compound: CN(C)CCCN1c2ccccc2CCc2ccccc21 [imipramine, imipramine hydrochloride]
- CMS-induced changes in SGK-1 (increased) and GR (decreased) mRNA levels [3]: significantly reversed these changes
- CMS-increased expression of noradrenergic genes (NET, α2A, α2C) ([4]; FC and HP, daily imipramine or GNR-E, highest dose greatest effect): significantly attenuated
- CMS-upregulated NET mRNA expression [4, 13]: reversed
- CMS-upregulated α2A and α2C receptor expression [4, 14]: reversed
- serum CORT levels [5]: significantly reduced these elevated CORT levels
- CMS-induced upregulation of serotonergic biomarker genes (SERT, 5-HT1A, 5-HT1B, 5-HT2A, 5-HT2C, 5-HT7) ([6]; FC and HP, daily imipramine 20 mg/kg or GNR-E 50, 150, 450 mg/kg, vs vehicle-treated CMS group): significantly reduced these elevations
- CMS-increased 5-HT1A and 5-HT1B mRNA expression ([6]; FC and HP, imipramine, GNR-E 450 mg/kg): reversed
- CMS-upregulated SERT mRNA expression [6, 13]: reversed
- CMS-elevated 5-HT2A, 5-HT2C, and 5-HT7 receptor expression [6, 14]: mitigated
- NE levels in frontal cortex and hippocampus [7]: significantly restored 5-HT and NE levels
- depressive-like behaviors [8]: significantly improved depressive-like behaviors
- sucrose intake (2% sucrose solution) [9]: significant increase in sucrose intake
- 5-HT levels in frontal cortex and hippocampus [10]: significantly restored 5-HT and NE levels

Compound: COc1c(O)cc2oc3cc(O)c(CC=C(C)C)c(O)c3c(=O)c2c1CC=C(C)C [α-mangostin]
- MAO-B inhibition (targeting) [2]: targeting MAO-B
- MAO-B inhibition, relative strength ([2]; ref Our previous study): stronger MAO-B inhibition
- immobility [11]: reducing immobility
- antidepressant-like properties [12]: antidepressant-like properties

Compound: cowagarcinone A
- selective MAO-A inhibition [1]: selectively inhibiting MAO-A

Compound: cowaxanthone
- selective MAO-A inhibition [1]: selectively inhibiting MAO-A

Compound: xanthochymusxanthone A
- selective MAO-A inhibition [1]: selectively inhibiting MAO-A

Reference: article PMC12693764, “Antidepressant-like Effects of Garcinia nigrolineata Resin Extract in a Chronic Mild Stress Mouse Model: Modulation of Monoaminergic and HPA-Axis Pathways” (Plants, 2025)
